This note sets out measurements from patent US6271220A, “Anti-angiogenic agents” (Allergan Sales, Inc., priority 1999, dated 2001).

The subject of this assay is Purified bovine brain tubulin. The experiment in a line: in vitro tubulin polymerization assay (turbidimetric). It counts as biochemical. Particulars: GTP-initiated, 30 C, turbidity monitored for 15 minutes, read-out: 1C50, inhibitory effects on tubulin polymerization in vitro. How it is done:
Anti-mitotic activity can be evaluated by testing the ability of a compound of the invention to inhibit tubulin polymerization and microtubule assembly in vitro. The tubulin/microtubule system is instrumental in the formation in the mitotic spindle, making it a prime target for anti-mitotic agents. In vitro tubulin polymerization assays are performed to serve as an estimate of the in vivo cytotoxic activity of designated compounds. Purified bovine brain tubulin (120 μl, 4 mg/ml), 240 μl PME (100 mm piperazine-n, n-bis(2-ethane-sulfonic acid i.e., pipes, ph 6.9, 1 mm MgSO4, 2 mm ethyleneglycol-bis-(β-aminoethyl ether) N, N, N', N'-tetraacetic acid i.e. EGTA and 40 μl dimethyl sulfoxide i.e. DMSO, are combined and transferred to a 1 ml quartz cuvet. Polymerization is initiated by the addition of guanosine triphosphate i.e. GTP, (8 μl, 50 mM) and monitored turbidometrically in a Varian DMS 90 UV-Vis spectrophotometer in a temperature controlled cuvet holder at 30_C. Tubidity increases with increasing tubulin polymerization, giving a false absorbence reading and, over time, a polymerization curve. […] 200 μM solutions (in DMSO) of compounds to be assayed were prepared, and substituted for portions of the DMSO in the polymerization mixture.
The method is given above in-vitro assay for anti-miotic activity.

As to `C[C@]12CC[C@@H]3c4ccc(Cl)c(=O)cc4CC[C@H]3[C@@H]1CC[C@@H]2O` [Compound 8b, 3-Chloro -A-Homo-1(10), 2,4a-estratrien-17β ol-4-one], the IC50 turned out to be 2.8 µM.
`C=Cc1ccc2c(cc1=O)CC[C@@H]1[C@@H]2CC[C@]2(C)[C@@H](O)CC[C@@H]12` [Compound 18, 3-Vinyl-A-homo-1(10), 2,4a-estratrien-17β-ol-4-one]: the IC50 was found to be 14.2 µM.
The same measure for `COc1cc2c(ccc1=O)[C@H]1CC[C@]3(C)[C@@H](O)CC[C@H]3[C@@H]1CC2` [Compound 11c, 4-Methoxy-A-Homo-1,4,5(10)-estratrien-17β-ol-3-one]: 2.1 µM; for `CN(C)c1cc2c(ccc1=O)[C@H]1CC[C@]3(C)[C@@H](O)CC[C@H]3[C@@H]1CC2` [Compound 19d, 4-Dimethylamino-A-homo-1,4,5(10)-estratrien-17β-ol-3-one]: 46.8 µM.
On to “4 Chloro-A-Homo-4,5(10)-estradien-2,17β-diol-3-one [Compound 11b]”, for which the IC50 was 9.8 µM.
The same measure for `C[C@]12CC[C@@H]3c4cc(N)c(=O)ccc4CC[C@H]3[C@@H]1CC[C@@H]2O` [Compound 15a, 2-Amino-A-homo-1,4,5(10)-estratrien-17β-ol-3-one]: 16.5 µM; for `C[C@]12CC[C@@H]3c4cccc(=O)cc4CC[C@H]3[C@@H]1CC[C@@H]2O` [Compound 3, A-Homo-1(10), 2,4a-estratrien-17β-ol-4-one]: 7.2 µM.
As for `C[C@]12CC[C@@H]3c4ccc(Br)c(=O)cc4CC[C@H]3[C@@H]1CC[C@@H]2O` [Compound 8a, 3-Bromo-A-Homo-1(10), 2,4a-estratrien-17β-ol-4-one], the IC50 was 2.9 µM.
With `CNc1ccc2c(cc1=O)CC[C@@H]1[C@@H]2CC[C@]2(C)[C@@H](O)CC[C@@H]12` [Compound 19a, 3-Methylamino-A-homo-1(10), 2,4a-estratrien-17β-ol-4-one], the IC50 stood at 60.7 µM.
The same measure for `C[C@]12CC[C@@H]3c4ccc(=O)ccc4CC[C@H]3[C@@H]1CC[C@@H]2O` [Compound 6, A-Homo-1,4,5(10)-estratrien-17β-ol-3-one]: 4.4 µM; for `C[C@]12CC[C@@H]3c4ccc(O)c(=O)cc4CC[C@H]3[C@@H]1CC[C@@H]2O` [Compound 16b, A-homo-1(10), 2,4a-estratrien-3,17β-diol-3-one]: 22.8 µM.
`C[C@]12CC[C@@H]3c4cc(O)c(=O)ccc4CC[C@H]3[C@@H]1CC[C@@H]2O` [Compound 16a, A-homo-1,4,5(10)-estratrien-2, 17β-diol-3-one]: the IC50 was 14.9 µM.
The value for `CNc1cc2c(ccc1=O)[C@H]1CC[C@]3(C)[C@@H](O)CC[C@H]3[C@@H]1CC2` [Compound 19c, 4-Methylamino-A-homo-1,4,5(10)-estratrien-17β-ol-3-one] was 19.4 µM; that for `CCOc1cc2c(ccc1=O)[C@H]1CC[C@]3(C)[C@@H](O)CC[C@H]3[C@@H]1CC2` [Compound 11d, 3-Ethoxy-A-Homo-1,4,5(10)-estratrien-17β-ol-3-one] was 5.9 µM.
Consider `C[C@]12CC[C@@H]3c4ccc(=O)c(N)cc4CC[C@H]3[C@@H]1CC[C@@H]2O` [Compound 15b, 4-Amino-A-homo-1,4,5(10)-estratrien-17β-ol-3-one], for which the IC50 came to 9.2 µM.
`COc1ccc2c(cc1=O)CC[C@@H]1[C@@H]2CC[C@]2(C)[C@@H](O)CC[C@@H]12` [Compound 8c, 3-Methoxy-A-Homo-1(10), 2,4a-estratrien-17β-ol-4-one]: the IC50 amounted to 8.1 µM.
The same measure for `COc1cc2c(ccc1=O)CC[C@@H]1[C@@H]2CC[C@]2(C)[C@@H](O)CC[C@@H]12` [Compound 13, 2-Methoxy-A-Homo-1,4,5(10)-estratrien-17β-ol-3-one]: 29.8 µM; for `C[C@]12CC[C@@H]3c4ccc([N+](=O)[O-])c(=O)cc4CC[C@H]3[C@@H]1CC[C@@H]2O` [Compound 17a, 3-Nitro-A-homo-1(10), 2,4a-estratrien-17β-ol-4-one]: 52 µM.
The value for `COc1ccc2c(cc1=O)[C@H]1CC[C@]3(C)[C@@H](O)CC[C@H]3[C@@H]1CC2` [Compound 12, 3-Methoxy-A-Homo-1(10), 3,4a-estratrien-17β-ol-2-one] was 27.5 µM; that for `CN(C)c1ccc2c(cc1=O)CC[C@@H]1[C@@H]2CC[C@]2(C)[C@@H](O)CC[C@@H]12` [Compound 19b, 3-Dimethylamino-A-homo-1(10), 2,4a-estratrien-17β-ol-4-one] was 14.3 µM; that for `C[C@]12CC[C@@H]3c4ccc(N)c(=O)cc4CC[C@H]3[C@@H]1CC[C@@H]2O` [Compound 14, 3-Amino-A-homo-1(10), 2,4a-estratrien-17β-ol-4-one] was 14.4 µM.
